Assay results reported in patent publication US20090176817A1, “Method of Treatment of Diarrhea-Predominant Irritable Bowel Syndrome in a Subject” (priority 2005, published 2009).
Marks after values point to notes of the source that are not given here.

Assays:
[1] = tested on: healthy, elderly subjects; experiment: Study K.241.5014: colonic transit time, elderly, 8 mg TID; type: in vivo, human
Description: The effect of cilansetron on gastric emptying time and colonic transit time has been studied in 1 clinical study in healthy young subjects and 2 studies in elderly subjects. For measurement of gastric emptying time, breath samples for the determination of the ^12C/^13C ratio were taken on the last day of each treatment period immediately after ingestion of a ^13C labeled meal. The patients' breath was collected in separate 15-minute intervals, for four hours in total. ^13CO2 measurements were performed with an isotope ratio mass spectrometer. The half-life (TK) and lag-time (Tlag), which describe the duration of gastric emptying, were used as the primary parameters to evaluate gastric emptying time. In all 3 studies, colonic transit time was measured by administration of radio-opaque markers for the last six days of each treatment period, followed by a single abdominal X-ray image at 24 hours after ingestion of the last set of markers. The numbers of markers within the colon were used to calculate segmental (right colon, left colon, and rectosigmoid) and total colonic transit time.
Studies K.241.5013 and K.241.5014 were randomized, double-blind, placebo-controlled, 2-way crossover studies in 8 healthy male and female elderly subjects, each (ITT population, aged 64-83 years in K.241.5013 and 66-84 years in K.241.5014). Elderly subjects were selected for these studies because they commonly suffer from constipation and it was of interest whether cilansetron would prolong gastrointestinal transit times in this population. Subjects received cilansetron 4 mg or placebo in Study K.241.5013 and cilansetron 8 mg or placebo in Study K.241.5014. Treatments were administered orally TID for 14 days during each period, with a 14-day washout between periods. The primary efficacy parameter was the total mean colonic transit time during each treatment and the secondary parameters were the segmental colonic transit times and the gastric emptying measurements. One-sided t-tests were used to compare efficacy parameters between the cilansetron and placebo treatments.

[2] = in vivo
Description: Time to reach steady state following dosing with cilansetron 2 mg TID has been evaluated in a study in 9 healthy male and female subjects.

[3] = both, human, in vivo, 32 mg
Description: Two randomized, double-blind, placebo controlled, balanced incomplete block design, crossover studies evaluated the single- and multiple-dose pharmacokinetics of oral cilansetron over a 8 mg to 32 mg dose range. In both studies, subjects were randomized to receive two of three treatments during 2 treatment periods. In one study (12 male and 13 female subjects, aged 23 to 36 years), subjects received 8 mg cilansetron, 16 mg cilansetron, or placebo, while in another study (12 males and 13 females, aged 23 to 41 years), subjects received 16 mg cilansetron, 32 mg cilansetron, or placebo. During each treatment period, subjects received a single dose of their assigned treatment on the first day, followed by a 3-day washout, after which they received the same treatment TID for 5 days.
There was a 5-6 day washout period between treatment periods. Doses on the mornings of pharmacokinetic days were administered under fasted conditions. Serial blood sampling and urine collection was performed up to 12 hours following morning dosing on the first day (single dose) and on the last multiple dosing day of each treatment period, and cilansetron pharmacokinetic parameters were evaluated.
In two randomized, double-blind, placebo controlled, balanced incomplete block design, crossover studies evaluating the single- and multiple-dose pharmacokinetics of oral cilansetron over a 8 mg to 32 mg dose range, subjects were randomized to receive two of three treatments during 2 treatment periods. In Study S.241.1.101; (12 male and 13 female subjects, aged 23 to 36 years), subjects received 8 mg cilansetron, 16 mg cilansetron, or placebo, while in Study S.24 1.1.102; (12 males and 13 females, aged 23 to 41 years), subjects received 16 mg cilansetron, 32 mg cilansetron, or placebo. During each treatment period, subjects received a single dose of their assigned treatment on the first day, followed by a 3-day washout, after which they received the same treatment TID for 5 days. There was a 5-6 day washout period between treatment periods. Doses on the mornings of pharmacokinetic days were administered under fasted conditions. Serial blood sampling and urine collection was performed up to 12 hours following morning dosing on the first day (single dose) and on the last multiple dosing day of each treatment period, and cilansetron pharmacokinetic parameters were evaluated.

[4] = clinical; settings: both, human, serum, Fraction Unbound in Serum
Description: The ex vivo protein binding of cilansetron and its 4-hydroxy metabolites has been measured in serum samples collected in a multiple-dose study in healthy and renally impaired male and female subjects, aged 33-74 years. […] Healthy subjects were matched to renally-impaired subjects with respect to age, weight, gender, and smoking status. All subjects received oral cilansetron 2 mg TID on Days 1 to 5, and a single dose on the morning of Day 6.

[5] = 8 mg TID oral 14 days, healthy elderly, Study K.241.5014, mean (SD)

## Cc1nccn1C[C@H]1CCc2c(c3cccc4c3n2CCC4)C1=O [Cilansetron, (R)-(−)-4,5,6,8,9,10-hexahydro-10-[(2-methyl-1H-imidazol-1-yl)methyl]-11H-pyrido-[3,2,1-jk]-carbazol-11-one]
[1]; 8 mg TID
  Total colonic transit time vs placebo: statistically significant increase
[1]; [5]
  Transit Times, Colonic Segments Left: 31.5 (30.5) hours
  Transit Times, Colonic Segments Rectosigmoid: 16.7 (25.2) hours
  Transit Times, Colonic Segments Right: 31.4 (21.0) hours
[1]; 8 mg TID oral 14 days, healthy elderly, Study K.241.5014, mean (SD), significant vs placebo (p < 0.05)
  Transit Times, Colon Total: 79.8 (49.8)* hours
[2]
  Steady state achieved by: third day
[3]
  DN-AUC: 14.1 (61) ng · h/mL
[4]
  fraction unbound: 0.0396
  fraction unbound at 1 h: 0.0351
  fraction unbound at […]: 0.034
